Patent US11497212B2, “Substituted thiophenyl uracils, salts thereof and the use thereof as herbicidal agents” (Syngenta Crop Protection AG, priority 2017, dated 2022)

Tests used:
Type in all cases: in vivo
Abutilon theophrasti [1] = test: Herbicidal action post-emergence (greenhouse pot trial); settings: application rate 20 g/ha, scored visually after about 3 weeks vs untreated controls
Summary of the method: (§1)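 Foliar application post-emergence; water volume 600 L/ha, additive 0.5%, dose ≤80 g/ha. Scoring: visual, ~3 wk, relative to untreated (0–100%).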

Amaranthus retroflexus [2] = test: as above; settings: application rate 20 g/ha, scored visually after about 3 weeks vs untreated controls
Summary of the method: as §1

Digitaria sanguinalis = test: as above; settings: application rate 20 g/ha
Summary of the method: as §1

Matricaria inodora [3] = test: as above; settings: application rate 20 g/ha, scored visually after about 3 weeks vs untreated controls
Summary of the method: as §1

Pharbitis purpurea [4] = test: as above; settings: application rate 20 g/ha
Summary of the method: as §1

Setaria viridis [5] = test: as above; settings: application rate 20 g/ha, scored visually after about 3 weeks vs untreated controls
Summary of the method: as §1

Stellaria media [6] = test: as above; settings: application rate 20 g/ha, scored visually after about 3 weeks vs untreated controls
Summary of the method: as §1

Veronica persica [7] = test: as above; settings: application rate 20 g/ha
Summary of the method: as §1

Viola tricolor [8] = test: as above; settings: application rate 20 g/ha
Summary of the method: as §1

Oryza sativa [9] = test: Crop compatibility post-emergence (greenhouse pot trial)
Summary of the method: (§2)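 Visual % damage vs untreated controls, ~3 wk post-spray (100% = plants died, 0% = as control). Plants in sandy loam, greenhouse, sprayed at one-leaf stage (2–3 wk after sowing); WP/EC in water + 0.5% additive, 600 L/ha.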

Triticum aestivum = test: as above; settings: application rate 20 g/ha
Summary of the method: as §2

Zea mays [10] = test: as above
Summary of the method: as §2

Abutilon theophrasti [11] = test: Herbicidal action pre-emergence (greenhouse pot trial); settings: scored after about 3 weeks
Summary of the method: (§3)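 In this test the compounds, as suspensions or emulsions in water plus 0.5% additive, are sprayed onto the soil layer covering seeds at 320 g/ha or lower. Scoring happens visually after about three weeks under good greenhouse growth conditions.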

Amaranthus retroflexus [12] = test: as above; settings: scored after about 3 weeks
Summary of the method: as §3

Matricaria inodora [13] = test: as above; settings: scored after about 3 weeks
Summary of the method: as §3

Glycine max [14] = test: Crop compatibility pre-emergence (greenhouse pot trial); settings: application rate 80 g/ha, effect vs untreated controls
Summary of the method: (§4)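 Compounds, formulated as WP or EC plus 0.5% additive, applied to covering soil after sowing at a water rate of 600 L/ha. After roughly 3 weeks under greenhouse conditions, visual % injury to crops rated against untreated plants, 0% meaning like control.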

Oryza sativa [15] = test: as above; settings: effect vs untreated controls
Summary of the method: as §4

Zea mays [16] = test: as above; settings: effect vs untreated controls
Summary of the method: as §4

Alopecurus myosuroides [17] = test: Herbicidal action post-emergence (greenhouse pot trial); settings: application rate 80 g/ha, scored visually after about 3 weeks vs untreated controls
Summary of the method: as §1

Echinochloa crus-galli [18] = test: as above; settings: application rate 20 g/ha, scored visually after about 3 weeks vs untreated controls
Summary of the method: as §1

Lolium rigidum [19] = test: as above; settings: application rate 20 g/ha, scored visually after about 3 weeks vs untreated controls
Summary of the method: as §1

Polygonum convolvulus = test: as above; settings: application rate 20 g/ha, scored visually after about 3 weeks vs untreated controls
Summary of the method: as §1

Glycine max [20] = test: Crop compatibility post-emergence (greenhouse pot trial); settings: application rate 20 g/ha
Summary of the method: as §2

Alopecurus myosuroides [21] = test: Herbicidal action pre-emergence (greenhouse pot trial); settings: application rate 320 g/ha, scored after about 3 weeks
Summary of the method: as §3

Avena fatua = test: as above; settings: application rate 320 g/ha
Summary of the method: as §3

Echinochloa crus-galli [22] = test: as above; settings: application rate 320 g/ha, scored after about 3 weeks
Summary of the method: as §3

Hordeum murinum = test: as above; settings: application rate 320 g/ha
Summary of the method: as §3

Lolium rigidum [23] = test: as above; settings: application rate 80 g/ha
Summary of the method: as §3

Pharbitis purpurea [24] = test: as above; settings: application rate 320 g/ha
Summary of the method: as §3

Setaria viridis [25] = test: as above; settings: application rate 320 g/ha, scored after about 3 weeks
Summary of the method: as §3

Stellaria media [26] = test: as above; settings: application rate 320 g/ha, scored after about 3 weeks
Summary of the method: as §3

Veronica persica [27] = test: as above; settings: application rate 320 g/ha
Summary of the method: as §3

Viola tricolor [28] = test: as above; settings: application rate 320 g/ha, scored after about 3 weeks
Summary of the method: as §3

| Oryza sativa (Efficacy in %) (Oryza sativa [9]; application rate 20 g/ha) [%] | Triticum aestivum (Efficacy in %) (Triticum aestivum) [%] | Zea mays (Efficacy in %) (Zea mays [10]; application rate 20 g/ha) [%] | Glycine max (Efficacy in %) (Glycine max [14]) [%] | Oryza sativa (Efficacy in %) (Oryza sativa [15]; application rate 80 g/ha) [%] | Zea mays (Efficacy in %) (Zea mays [16]; application rate 80 g/ha) [%] | Structure (SMILES) | Abutilon theophrasti (Efficacy in %) (Abutilon theophrasti [1]) [%] | Amaranthus retroflexus (Efficacy in %) (Amaranthus retroflexus [2]) [%] | Matricaria inodora (Efficacy in %) (Matricaria inodora [3]) [%] | Pharbitis purpurea (Efficacy in %) (Pharbitis purpurea [4]) [%] | Setaria viridis (Efficacy in %) (Setaria viridis [5]) [%] | Stellaria media (Efficacy in %) (Stellaria media [6]) [%] | Veronica persica (Efficacy in %) (Veronica persica [7]) [%] | Viola tricolor (Efficacy in %) (Viola tricolor [8]) [%] | Abutilon theophrasti (Efficacy in %) (Abutilon theophrasti [11]; application rate 80 g/ha) [%] | Amaranthus retroflexus (Efficacy in %) (Amaranthus retroflexus [12]; application rate 80 g/ha) [%] | Matricaria inodora (Efficacy in %) (Matricaria inodora [13]; application rate 80 g/ha) [%] | Echinochloa crus-galli (Efficacy in %) (Echinochloa crus-galli [18]) [%] | Polygonum convolvulus (Efficacy in %) (Polygonum convolvulus) [%] | further results |
| --- | --- | --- | --- | --- | --- | --- | --- | --- | --- | --- | --- | --- | --- | --- | --- | --- | --- | --- | --- | --- |
| 0 | 20 | 20 | 10 | 20 | 0 | CC(Sc1cc(-n2c(=O)cc(C(F)(F)F)n(C)c2=O)c(F)cc1Cl)C(=O)OC1CCCOC1 (stereo not drawn) [I.1-126] | 100 | 100 | 90 | 100 | 100 | 100 | 100 | 100 | 100 | 100 | 100 |  |  | Digitaria sanguinalis (Efficacy in %) (Digitaria sanguinalis): 80% |
|  | 20 |  | 20 |  |  | CSCCNC(=O)C(C)Sc1cc(-n2c(=O)cc(C(F)(F)F)n(C)c2=O)c(F)cc1Cl (stereo not drawn) [I.1-181] | 100 | 100 | 100 |  | 100 | 100 | 100 | 100 |  |  |  | 100 | 100 | Alopecurus myosuroides (Efficacy in %) (Alopecurus myosuroides [17]): 80%; Lolium rigidum (Efficacy in %) (Lolium rigidum [19]): 80%; Glycine max (Efficacy in %) (Glycine max [20]): 20%; Oryza sativa (Efficacy in %) (Oryza sativa [9]; application rate 80 g/ha): 10%; Zea mays (Efficacy in %) (Zea mays [10]; application rate 80 g/ha): 20%; Abutilon theophrasti (Efficacy in %) (Abutilon theophrasti [11]; application rate 320 g/ha): 100%; Alopecurus myosuroides (Efficacy in %) (Alopecurus myosuroides [21]): 100%; Amaranthus retroflexus (Efficacy in %) (Amaranthus retroflexus [12]; application rate 320 g/ha): 100%; Avena fatua (Efficacy in %) (Avena fatua): 100%; Echinochloa crus-galli (Efficacy in %) (Echinochloa crus-galli [22]): 100%; Hordeum murinum (Efficacy in %) (Hordeum murinum): 90%; Lolium rigidum (Efficacy in %) (Lolium rigidum [23]): 100%; Matricaria inodora (Efficacy in %) (Matricaria inodora [13]; application rate 320 g/ha): 100%; Pharbitis purpurea (Efficacy in %) (Pharbitis purpurea [24]): 100%; Setaria viridis (Efficacy in %) (Setaria viridis [25]): 100%; Stellaria media (Efficacy in %) (Stellaria media [26]): 100%; Veronica persica (Efficacy in %) (Veronica persica [27]): 100%; Viola tricolor (Efficacy in %) (Viola tricolor [28]): 100%; Oryza sativa (Efficacy in %) (Oryza sativa [15]; application rate 20 g/ha): 0%; Zea mays (Efficacy in %) (Zea mays [16]; application rate 20 g/ha): 0% |
| 0 | 10 | 20 |  | 10 | 0 | CC(Sc1cc(-n2c(=O)cc(C(F)(F)F)n(C)c2=O)c(F)cc1Cl)C(=O)OCC1CCCOC1 (stereo not drawn) [I.1-92] | 100 | 100 | 80 | 100 | 100 |  | 100 | 100 | 100 | 100 | 100 | 100 | 100 |  |
